Converted amounts (≈) assume the structure as drawn. Like-named read-outs stand apart in the source and are kept apart here. Marks after values point to notes of the source that are not given here.
What was measured:
MRSA ATCC33591 [1] = experiment: Experimental rabbit infective endocarditis model, Example 2 (dose response); format: in vivo, Staphylococcus aureus; details: for Staphylococcus aureus densities, Kidneys / Staphylococcus aureus densities, Spleen / Staphylococcus aureus densities, Vegetations: rabbit, 3 days, 24 h after last dose
Method: Rabbit IE was induced following transcarotid-transaortic valve indwelling catheterization. At 24 hrs after iv infection with 10^6 cfu MRSA ATCC33591 (ID95 inoculum), animals received either:
i) no therapy (control); ii) endocardisin at 5, 10 or 20 mg/kg, iv, bid; iii) vancomycin at 15 mg/kg, iv, bid; or iv) daptomycin at 12 mg/kg, iv, once-daily;
All regimens were for 3 days. At 24 hours after the last antibiotic dose, target tissues were removed and quantitatively cultured.

MRSA ATCC33591 [2] = experiment: Experimental rabbit aortic infective endocarditis model, Example 1 (end of treatment and relapse); format: in vivo, Staphylococcus aureus; details: for Staphylococcus aureus densities, Kidneys / Staphylococcus aureus densities, Spleen / Staphylococcus aureus densities, Vegetations / Staphylococcus aureus densities, Kidneys (Relapse) / Staphylococcus aureus densities, Spleen (Relapse) / Staphylococcus aureus densities, Vegetations (Relapse): rabbit, iv, 3 days; for Staphylococcus aureus densities, Kidneys / Staphylococcus aureus densities, Spleen / Staphylococcus aureus densities, Vegetations: 24 h after last dose, mean ± SD; for Staphylococcus aureus densities, Kidneys (Relapse) / Staphylococcus aureus densities, Spleen (Relapse) / Staphylococcus aureus densities, Vegetations (Relapse): then drug-free for an extra 3 days
Method: Experimental aortic infective endocarditis model was induced in New Zealand White rabbits with a methicillin-resistant Staphylococcus aureus (MRSA), strain ATCC33591, following trans-carotid-transaortic valve indwelling catheterization.
After aortic catheterization and 24 hr post-infection, animals were randomized to receive either:
i) no therapy (control); ii) endocardisin at 40 mg/kg, iv, twice daily; iii) vancomycin at 15 mg/kg, iv, twice daily; or iv) daptomycin at 12 mg/kg, iv, once daily (the latter two dose-strategies to mimic human-like PK).
Treatments lasted for 3 days. At 24 hours after the last antibiotic dose, half the animals were sacrificed with a lethal dose of sodium pentobarbital to test the treatment efficacies. The remaining animals resided drug-free for an extra 3 days for relapse studies. At sacrifice, vegetations, kidneys and spleen were removed and quantitatively cultured. […] Culture results were expressed as mean log10 CFU per gram of tissue (±SD).

MRSA ATCC33591 [3] = experiment: MIC by broth microdilution assay according to CLSI; format: cell-based, Staphylococcus aureus
Method: The MICs of endocardisin, vancomycin and daptomycin were determined by a broth microdilution assay according to Clinical Laboratory Standards Institute (CLSI). MIC is defined as the lowest drug concentration completely inhibiting organisms growth.

**Q.** How did the “Staphylococcus aureus densities, Kidneys” value (MRSA ATCC33591 [1]; 15 mg/kg, iv, twice-daily) turn out when `CN[C@H](CC(C)C)C(=O)N[C@H]1C(=O)N[C@@H](CC(N)=O)C(=O)N[C@H]2C(=O)N[C@H]3C(=O)N[C@H](C(=O)N[C@H](C(=O)O)c4cc(O)cc(O)c4-c4cc3ccc4O)[C@H](O)c3ccc(c(Cl)c3)Oc3cc2cc(c3O[C@@H]2O[C@H](CO)[C@@H](O)[C@H](O)[C@H]2O[C@H]2C[C@](C)(N)[C@H](O)[C@H](C)O2)Oc2ccc(cc2Cl)[C@H]1O` [vancomycin] was run?
**A.** 3.07 +/− 0.53 log10 CFU/g tissue

**Q.** And the “Staphylococcus aureus densities, Spleen” value (MRSA ATCC33591 [1]; 15 mg/kg, iv, twice-daily)?
**A.** 3.02 +/− 0.51 log10 CFU/g tissue

**Q.** What about the “Staphylococcus aureus densities, Vegetations” value (MRSA ATCC33591 [1]; 15 mg/kg, iv, twice-daily) of the same compound?
**A.** 5.60 +/− 1.47 log10 CFU/g tissue

**Q.** And the “Staphylococcus aureus densities, Kidneys” value (MRSA ATCC33591 [2]; 15 mg/kg, twice-daily)?
**A.** 3.07 +/− 0.53 log10 CFU/g tissue

**Q.** What about the “Staphylococcus aureus densities, Spleen” value (MRSA ATCC33591 [2]; 15 mg/kg, twice-daily) of the same compound?
**A.** 3.02 +/− 0.51 log10 CFU/g tissue

**Q.** And the “Staphylococcus aureus densities, Vegetations” value (MRSA ATCC33591 [2]; 15 mg/kg, twice-daily)?
**A.** 5.60 +/− 1.47 log10 CFU/g tissue

**Q.** And the “Staphylococcus aureus densities, Kidneys (Relapse)” value (MRSA ATCC33591 [2]; 15 mg/kg, twice-daily)?
**A.** 4.69 +/− 1.63 log10 CFU/g tissue

**Q.** What about the “Staphylococcus aureus densities, Spleen (Relapse)” value (MRSA ATCC33591 [2]; 15 mg/kg, twice-daily) of the same compound?
**A.** 3.98 +/− 1.27 log10 CFU/g tissue

**Q.** What about the “Staphylococcus aureus densities, Vegetations (Relapse)” value (MRSA ATCC33591 [2]; 15 mg/kg, twice-daily) of the same compound?
**A.** 6.36 +/− 1.57 log10 CFU/g tissue

**Q.** And the MIC (MRSA ATCC33591 [3]; Staphylococcus aureus)?
**A.** 2 µg/mL (≈ 1.38 µM)

**Q.** For “endocardisin: synthetic defensin; a polypeptide having the amino acid sequence shown in SEQ ID NO: 1 (GFGCNGPWNEDDLRCHNHCKSIKGYKGGYCAKGGFVCKCY)”, which “dose dependence of therapeutic efficacy in all target tissues” value (MRSA ATCC33591 [1]; 5, 10 or 20 mg/kg, iv, bid) is on record?
**A.** dose-dependent therapeutic efficacy

**Q.** What about the “reduction of MRSA densities in all target tissues vs. vancomycin therapy” value (MRSA ATCC33591 [1]; endocardisin at 20 mg/kg) of the same compound?
**A.** significantly greater efficacy

**Q.** What about the “Staphylococcus aureus densities, Kidneys” value (MRSA ATCC33591 [1]; 5 mg/kg, iv, twice-daily) of the same compound?
**A.** 4.33 +/− 1.27 log10 CFU/g tissue

**Q.** And the “Staphylococcus aureus densities, Spleen” value (MRSA ATCC33591 [1]; 5 mg/kg, iv, twice-daily)?
**A.** 4.61 +/− 1.11 log10 CFU/g tissue

**Q.** And the “Staphylococcus aureus densities, Vegetations” value (MRSA ATCC33591 [1]; 5 mg/kg, iv, twice-daily)?
**A.** 6.44 +/− 1.70 log10 CFU/g tissue

**Q.** And the “Staphylococcus aureus densities, Kidneys” value (MRSA ATCC33591 [1]; 10 mg/kg, iv, twice-daily)?
**A.** 3.19 +/− 1.06 log10 CFU/g tissue

**Q.** And the “Staphylococcus aureus densities, Spleen” value (MRSA ATCC33591 [1]; 10 mg/kg, iv, twice-daily)?
**A.** 2.62 +/− 0.60 log10 CFU/g tissue

**Q.** And the “Staphylococcus aureus densities, Vegetations” value (MRSA ATCC33591 [1]; 10 mg/kg, iv, twice-daily)?
**A.** 4.74 +/− 1.84 log10 CFU/g tissue

**Q.** What about the “Staphylococcus aureus densities, Kidneys” value (MRSA ATCC33591 [1]; 20 mg/kg, iv, twice-daily) of the same compound?
**A.** 0.61 +/− 0.21 log10 CFU/g tissue

**Q.** What about the “Staphylococcus aureus densities, Spleen” value (MRSA ATCC33591 [1]; 20 mg/kg, iv, twice-daily) of the same compound?
**A.** 0.61 +/− 0.12 log10 CFU/g tissue

**Q.** And the “Staphylococcus aureus densities, Vegetations” value (MRSA ATCC33591 [1]; 20 mg/kg, iv, twice-daily)?
**A.** 1.57 +/− 0.75 log10 CFU/g tissue

**Q.** What about the preventing relapse (MRSA ATCC33591 [2]; 3 days drug-free after 3 days treatment) of the same compound?
**A.** most effective in preventing relapse

**Q.** What about the “reduction of MRSA densities in all target tissues as compared with vancomycin therapy” value (MRSA ATCC33591 [2]; endocardisin 40 mg/kg iv twice daily, P<0.001) of the same compound?
**A.** significantly greater efficacy

**Q.** What about the “Staphylococcus aureus densities, Kidneys” value (MRSA ATCC33591 [2]; 40 mg/kg, twice-daily) of the same compound?
**A.** 1.18 +/− 0.75* log10 CFU/g tissue

**Q.** And the “Staphylococcus aureus densities, Spleen” value (MRSA ATCC33591 [2]; 40 mg/kg, twice-daily)?
**A.** 1.02 +/− 0.65* log10 CFU/g tissue

**Q.** And the “Staphylococcus aureus densities, Vegetations” value (MRSA ATCC33591 [2]; 40 mg/kg, twice-daily)?
**A.** 2.41 +/− 1.50* log10 CFU/g tissue

**Q.** What about the “Staphylococcus aureus densities, Kidneys (Relapse)” value (MRSA ATCC33591 [2]; 40 mg/kg, twice-daily) of the same compound?
**A.** 0.75 +/− 0.79* log10 CFU/g tissue

**Q.** And the “Staphylococcus aureus densities, Spleen (Relapse)” value (MRSA ATCC33591 [2]; 40 mg/kg, twice-daily)?
**A.** 1.17 +/− 0.70* log10 CFU/g tissue

**Q.** What about the “Staphylococcus aureus densities, Vegetations (Relapse)” value (MRSA ATCC33591 [2]; 40 mg/kg, twice-daily) of the same compound?
**A.** 1.45 +/− 0.64* log10 CFU/g tissue

**Q.** What about the MIC (MRSA ATCC33591 [3]; study strain MRSA ATCC33591, lowest drug concentration completely inhibiting growth) of the same compound?
**A.** 0.5 micrograms/ml

**Q.** For `CCCCCCCCCC(=O)N[C@@H](Cc1c[nH]c2ccccc12)C(=O)N[C@H](CC(N)=O)C(=O)N[C@@H](CC(=O)O)C(=O)N[C@@H]1C(=O)NCC(=O)N[C@@H](CCCN)C(=O)N[C@@H](CC(=O)O)C(=O)N[C@H](C)C(=O)N[C@@H](CC(=O)O)C(=O)NCC(=O)N[C@H](CO)C(=O)N[C@@H]([C@H](C)CC(=O)O)C(=O)N[C@@H](CC(=O)c2ccccc2N)C(=O)O[C@@H]1C` [daptomycin], which “Staphylococcus aureus densities, Kidneys” value (MRSA ATCC33591 [1]; 12 mg/kg, iv, once-daily) is on record?
**A.** 0.76 +/− 0.53 log10 CFU/g tissue

**Q.** What about the “Staphylococcus aureus densities, Spleen” value (MRSA ATCC33591 [1]; 12 mg/kg, iv, once-daily) of the same compound?
**A.** 0.91 +/− 0.53 log10 CFU/g tissue

**Q.** What about the “Staphylococcus aureus densities, Vegetations” value (MRSA ATCC33591 [1]; 12 mg/kg, iv, once-daily) of the same compound?
**A.** 1.90 +/− 0.82 log10 CFU/g tissue

**Q.** What about the “Staphylococcus aureus densities, Kidneys” value (MRSA ATCC33591 [2]; 12 mg/kg, once-daily) of the same compound?
**A.** 0.76 +/− 0.52* log10 CFU/g tissue

**Q.** What about the “Staphylococcus aureus densities, Spleen” value (MRSA ATCC33591 [2]; 12 mg/kg, once-daily) of the same compound?
**A.** 0.91 +/− 0.53* log10 CFU/g tissue

**Q.** And the “Staphylococcus aureus densities, Vegetations” value (MRSA ATCC33591 [2]; 12 mg/kg, once-daily)?
**A.** 1.90 +/− 0.82* log10 CFU/g tissue

**Q.** What about the “Staphylococcus aureus densities, Kidneys (Relapse)” value (MRSA ATCC33591 [2]; 12 mg/kg, once-daily) of the same compound?
**A.** 1.68 +/− 2.24** log10 CFU/g tissue

**Q.** What about the “Staphylococcus aureus densities, Spleen (Relapse)” value (MRSA ATCC33591 [2]; 12 mg/kg, once-daily) of the same compound?
**A.** 1.30 +/− 1.48** log10 CFU/g tissue

**Q.** And the “Staphylococcus aureus densities, Vegetations (Relapse)” value (MRSA ATCC33591 [2]; 12 mg/kg, once-daily)?
**A.** 2.46 +/− 2.36** log10 CFU/g tissue

**Q.** And the MIC (MRSA ATCC33591 [3]; Staphylococcus aureus, study strain MRSA ATCC33591, lowest drug concentration completely inhibiting growth, read-out: MIC)?
**A.** 0.125 µg/mL (≈ 0.0771 µM)
